{"source": "ChEMBL document CHEMBL5036353", "about": "“Discovery of Pyrazolo[3,4-d]pyridazinone Derivatives as Selective DDR1 Inhibitors via Deep Learning Based Design, Synthesis, and Biological Evaluation” (J Med Chem, 2022)", "key": {"Mus musculus [1]": {"test_system": "Mus musculus", "test": "Anti-colitis activity against DSS-induced IBD C57BL/6 mouse model assessed as reduction in crypt loss in colon at 5 to 10 mg/kg, po administered daily measured after 9 days by HE staining based analysis", "format": "functional, organism-based", "details": "dose 5-10 mg/kg, time 9.0 day"}, "Mus musculus [2]": {"test_system": "Mus musculus", "test": "Anti-colitis activity against DSS-induced IBD C57BL/6 mouse model assessed as reduction in inflammatory cell infiltration in colon at 5 to 10 mg/kg, po administered daily measured after 9 days by HE staining based analysis", "format": "functional, organism-based", "details": "dose 5-10 mg/kg, time 9.0 day"}, "Mus musculus [3]": {"test_system": "Mus musculus", "test": "Anti-colitis activity against DSS-induced IBD C57BL/6 mouse model assessed as reduction in serum TNF expression at 5 to 10 mg/kg, po administered daily by ELISA", "format": "functional, organism-based", "details": "dose 5-10 mg/kg"}, "Mus musculus [4]": {"test_system": "Mus musculus", "test": "Anti-colitis activity against DSS-induced IBD C57BL/6 mouse model assessed as reduction in serum IL-1beta expression at 5 to 10 mg/kg, po administered daily by ELISA", "format": "functional, organism-based", "details": "dose 5-10 mg/kg"}, "Mus musculus [5]": {"test_system": "Mus musculus", "test": "Anti-colitis activity against DSS-induced IBD C57BL/6 mouse model assessed as reduction in IL-1beta transcription level in colon at 5 to 10 mg/kg, po administered daily by RT-qPCR analysis", "format": "functional, organism-based", "details": "dose 5-10 mg/kg"}, "Mus musculus [6]": {"test_system": "Mus musculus", "test": "Anti-colitis activity against DSS-induced IBD C57BL/6 mouse model assessed as improvement in DSS induced weight loss at 5 to 10 mg/kg, po administered daily and measured after 5 to 8 days", "format": "functional, organism-based", "details": "dose 5-10 mg/kg, time 5-8 day"}, "Mus musculus [7]": {"test_system": "Mus musculus", "test": "Anti-colitis activity against DSS-induced IBD C57BL/6 mouse model assessed as reduction in severe epithelial destruction in colon at 5 to 10 mg/kg, po administered daily measured after 9 days by HE staining based analysis", "format": "functional, organism-based", "details": "dose 5-10 mg/kg, time 9.0 day"}, "[8]": {"target": "NT-3 growth factor receptor (Homo sapiens) (UniProt Q16288)", "sequence (Q16288 32-839 limits assumed)": "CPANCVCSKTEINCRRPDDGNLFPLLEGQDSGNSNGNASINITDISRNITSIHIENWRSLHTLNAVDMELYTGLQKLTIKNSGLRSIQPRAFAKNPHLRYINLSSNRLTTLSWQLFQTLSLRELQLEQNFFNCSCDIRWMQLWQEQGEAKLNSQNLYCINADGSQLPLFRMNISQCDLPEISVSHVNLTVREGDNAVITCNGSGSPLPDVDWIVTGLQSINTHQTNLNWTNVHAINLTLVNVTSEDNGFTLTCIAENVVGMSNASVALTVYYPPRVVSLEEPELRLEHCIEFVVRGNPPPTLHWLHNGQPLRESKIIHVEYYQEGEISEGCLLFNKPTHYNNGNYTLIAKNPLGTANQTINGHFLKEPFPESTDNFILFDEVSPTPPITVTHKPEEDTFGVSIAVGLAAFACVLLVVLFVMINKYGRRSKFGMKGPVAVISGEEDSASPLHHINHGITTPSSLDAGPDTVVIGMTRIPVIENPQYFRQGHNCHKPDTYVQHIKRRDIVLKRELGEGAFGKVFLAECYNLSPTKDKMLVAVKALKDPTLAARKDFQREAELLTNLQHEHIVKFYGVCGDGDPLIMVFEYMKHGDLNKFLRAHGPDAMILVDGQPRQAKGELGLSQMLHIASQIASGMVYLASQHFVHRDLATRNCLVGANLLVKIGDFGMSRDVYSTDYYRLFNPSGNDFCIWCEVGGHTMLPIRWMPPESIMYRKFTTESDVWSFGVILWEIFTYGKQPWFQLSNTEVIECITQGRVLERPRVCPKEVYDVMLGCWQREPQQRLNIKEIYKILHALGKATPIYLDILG", "test": "Inhibition of recombinant human TRKC (510 to end residues) assessed as residual activity at 10 uM using GEEPLYWSFPAKKK as substrate incubated for 40 mins in presence of [gamma33P]ATP by scintillation counting based radiometry assay relative to control"}, "THP-1 [9]": {"test_system": "THP-1", "test": "Antiinflammatory activity against human THP-1 derived macrophage assessed as inhibition of LPS-induced TNF expression at 10 uM by ELISA", "format": "functional, cell-based"}, "Macrophage [10]": {"test_system": "Macrophage", "test": "Antiinflammatory activity against mouse primary bone marrow derived macrophages assessed as inhibition of LPS-induced IL-6 expression by ELISA", "format": "functional, tissue-based", "details": "dose 10.0 µM"}, "Macrophage [11]": {"test_system": "Macrophage", "test": "Antiinflammatory activity against mouse primary bone marrow derived macrophages assessed as inhibition of LPS-induced TNF expression at 10 uM by ELISA", "format": "functional, tissue-based"}, "Macrophage [12]": {"test_system": "Macrophage", "test": "Antiinflammatory activity against mouse primary bone marrow derived macrophages assessed as inhibition of LPS-induced IL-1beta expression at 10 uM by ELISA", "format": "functional, tissue-based"}, "THP-1 [13]": {"test_system": "THP-1", "test": "Antiinflammatory activity against human THP-1 derived macrophages assessed as inhibition of LPS-induced IL6 expression by ELISA", "format": "functional, cell-based", "details": "dose 10.0 µM"}, "Mus musculus [14]": {"test_system": "Mus musculus", "test": "Anti-colitis activity against DSS-induced IBD C57BL/6 mouse model assessed as improvement in DSS reduced colon length at 5 to 10 mg/kg, po administered daily and measured after 9 days", "format": "functional, organism-based", "details": "dose 5-10 mg/kg, time 9.0 day"}, "Mus musculus [15]": {"test_system": "Mus musculus", "test": "Anti-colitis activity against DSS-induced IBD C57BL/6 mouse model assessed as reduction in IL-6 transcription level in colon at 5 to 10 mg/kg, po administered daily by RT-qPCR analysis", "format": "functional, organism-based", "details": "dose 5-10 mg/kg"}, "Mus musculus [16]": {"test_system": "Mus musculus", "test": "Anti-colitis activity against DSS-induced IBD C57BL/6 mouse model assessed as reduction in serum IL-6 expression at 5 to 10 mg/kg, po administered daily by ELISA", "format": "functional, organism-based", "details": "dose 5-10 mg/kg"}, "Mus musculus [17]": {"test_system": "Mus musculus", "test": "Anti-colitis activity against DSS-induced IBD C57BL/6 mouse model assessed as reduction in TNF transcription level in colon at 5 to 10 mg/kg, po administered daily by RT-qPCR analysis", "format": "functional, organism-based", "details": "dose 5-10 mg/kg"}, "Mus musculus [18]": {"test_system": "Mus musculus", "test": "Anti-colitis activity against DSS-induced IBD C57BL/6 mouse model assessed as reduction in fecal occult blood score at 5 to 10 mg/kg, po administered daily and measured after 9 days", "format": "functional, organism-based", "details": "dose 5-10 mg/kg, time 9.0 day"}, "THP-1 [19]": {"test_system": "THP-1", "test": "Antiinflammatory activity against human THP-1 derived macrophage assessed as inhibition of LPS-induced IL-1beta expression at 10 uM by ELISA", "format": "functional, cell-based"}}, "note": "Calls of active or inactive are those of the source. The rule behind the calls is not given here."}
{"smiles": "CC(=O)Nc1ccc(-n2nc3c(=O)[nH]nc(N)c3c2-c2oc3cc(C(=O)Nc4cccc(C(F)(F)F)c4)ccc3c2C)cc1", "values": [{"measurement": "Activity", "setting": "Mus musculus [1]", "value": "Active"}, {"measurement": "Activity", "setting": "Mus musculus [2]", "value": "Active"}, {"measurement": "Activity", "setting": "Mus musculus [3]", "value": "Active"}, {"measurement": "Activity", "setting": "Mus musculus [4]", "value": "Active"}, {"measurement": "Activity", "setting": "Mus musculus [5]", "value": "Active"}, {"measurement": "Activity", "setting": "Mus musculus [6]", "value": "Active"}, {"measurement": "Activity", "setting": "Mus musculus [7]", "value": "Active"}, {"measurement": "Activity", "setting": "[8]", "value": 45, "unit": "%"}, {"measurement": "Activity", "setting": "THP-1 [9]", "value": "Active"}, {"measurement": "Activity", "setting": "Macrophage [10]", "value": "Dose-Dependent Effect"}, {"measurement": "Activity", "setting": "Macrophage [11]", "value": "Active"}, {"measurement": "Activity", "setting": "Macrophage [12]", "value": "Active"}, {"measurement": "Activity", "setting": "THP-1 [13]", "value": "Dose-Dependent Effect"}, {"measurement": "Activity", "setting": "Mus musculus [14]", "value": "Active"}, {"measurement": "Activity", "setting": "Mus musculus [15]", "value": "Active"}, {"measurement": "Activity", "setting": "Mus musculus [16]", "value": "Active"}, {"measurement": "Activity", "setting": "Mus musculus [17]", "value": "Active"}, {"measurement": "Activity", "setting": "Mus musculus [18]", "value": "Active"}, {"measurement": "Activity", "setting": "THP-1 [19]", "value": "Active"}]}
